Experimental data from patent publication US10633375B2, “Oxopicolinamide derivative, preparation method therefor and pharmaceutical use thereof” (Jiangsu Hengrui Medicine Co., Ltd., priority 2016, dated 2020).

Key:
[1] = Pharmacokinetics assay in rats after intragastrical administration; format: in vivo, Sprague-Dawley (SD) rats; settings: SD rats, intragastric, 2 mg/kg; for AUC / Cmax / Vd/F / CL/F / half-life / MRT: both sexes, Sprague-Dawley, rat, plasma, po; for AUC: read-out: Area Under Curve AUC; for Cmax: read-out: Plasma Concentration Cmax; for Vd/F: read-out: Apparent Distribution Volume Vz/F; for CL/F: read-out: Clearance CLz/F; for half-life: read-out: Half-Life T½ (converted); for MRT: read-out: Mean Residence Time MRT
Source text: Test Example 3. Pharmacokinetics Assay of the Compounds of the Present Invention
Rats were used as test animals. […] The pharmacokinetic behavior of the compounds of the present invention was studied and evaluated in rats.
56 healthy adult Sprague-Dawley (SD) rats, half male and half female, were purchased from SINO-BRITSH SIPPR/BK LAB. ANIMAL LTD., CO, with License No.: SCXK (Shanghai) 2008-0016.
2.3 Preparation of the Test Compounds
A certain amount of the test compound was weighed, and added with 5% by volume of DMSO, 5% by volume of Tween 80 and 90% normal saline to prepare a 0.2 mg/mL colorless, clear and transparent solution.
After an overnight fast, SD rats were intragastrically administered at a dose of 2.0 mg/kg and an administration volume of 10.0 mL/kg.
Blood (0.2 mL) was taken from the orbital sinus before administration and at 0.5, 1.0, 2.0, 4.0, 6.0, 8.0, 11.0 and 24.0 hours after administration. The samples were stored in heparin anticoagulation tubes, and centrifuged for 10 minutes at 3500 rpm at 4° C. to separate the blood plasma. The plasma samples were stored at −20° C. The rats were fed 2 hours after administration.
The content of the test compound in the plasma of rats after intragastric administration of different concentrations of the drug was determined: 25 μL of rat plasma at each time after administration was taken and added with 30 μL (100 ng/mL) of the internal standard solution of camptothecin and 200 μL of acetonitrile, shaken vertically for 5 minutes, and centrifuged for 10 minutes (4000 rpm). 3.0 μL of the supernatant was taken from the plasma samples for LC/MS/MS analysis.
4. Results of Pharmacokinetic Parameters
Pharmacokinetic parameters of the compounds of the present invention in rats are shown below.

[2] = biological target: Coagulation Factor XIa protease (Homo sapiens (Human), UniProt P03951); experiment: Inhibition of Factor XIa detected by absorption photometry; format: biochemical; settings: absorbance at 405 nm, 10 minutes at 37° C.
Chain of Coagulation Factor XIa protease (P03951 388-625): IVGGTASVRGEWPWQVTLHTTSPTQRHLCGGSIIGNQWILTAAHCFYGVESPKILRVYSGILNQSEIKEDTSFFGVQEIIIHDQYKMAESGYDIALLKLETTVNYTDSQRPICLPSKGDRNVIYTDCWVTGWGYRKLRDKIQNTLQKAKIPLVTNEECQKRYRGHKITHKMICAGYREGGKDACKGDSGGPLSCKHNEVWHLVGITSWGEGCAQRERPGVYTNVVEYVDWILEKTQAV
Chain of Coagulation Factor XIa protease (P03951 19-387 partner): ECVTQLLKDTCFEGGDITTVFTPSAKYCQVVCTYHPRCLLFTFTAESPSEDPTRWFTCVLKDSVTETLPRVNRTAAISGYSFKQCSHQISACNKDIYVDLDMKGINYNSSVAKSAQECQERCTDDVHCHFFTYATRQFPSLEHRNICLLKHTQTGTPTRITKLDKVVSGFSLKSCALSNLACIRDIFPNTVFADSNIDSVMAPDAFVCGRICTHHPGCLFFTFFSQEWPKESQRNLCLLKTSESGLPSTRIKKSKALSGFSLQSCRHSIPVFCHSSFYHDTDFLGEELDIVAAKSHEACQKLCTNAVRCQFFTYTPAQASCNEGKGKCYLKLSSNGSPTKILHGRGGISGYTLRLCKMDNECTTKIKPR
Method: Test Example 1: Biological Activity of the Compounds of the Present Invention on
The Inhibition of Factor XIa Detected by Absorption Photometry
1. Experimental Materials
Enzyme: Coagulation Factor XIa protease (Abcam, Art. No ab62411)
Substrate: Coagulation Factor XIa specific substrate (HYPHEN1310 med, Art. No. Biophen cs-21(66))
2. Experimental Procedure
20 mM of test compound dissolved in 100% DMSO was diluted to 200, 20, 2, 0.2, 0.02, 0.002 μM with 100% DMSO; 1 μl of the compound was added to each well in a 384-well plate, blank and control wells were replaced with DMSO. The plate was centrifuged to remove the compound to the bottom. 10 μl (2.5 μg/ml) of FXIa enzyme solution was added to each well, and 10 μl of buffer was added to the blank well. The plate was centrifuged to remove the enzyme solution to the bottom.
Finally, 10 μl of 2 mM substrate were added to each well, and the plate was centrifuged to remove the substrate solution to the bottom.
The plate was incubated for 10 minutes at 37° C.; and then the absorbance was measured at 405 nm.

COc1cn([C@@H](Cc2ccncc2)C(=O)Nc2ccc(C(=O)O)cc2)c(=O)cc1-c1cc(Cl)ccc1C#N [Comparative Example 1, (S)-4-(2-(4-(5-chloro-2-cyanophenyl)-5-methoxy-2-oxopyridin-1(21)-yl)-3-(pyridin-4-yl)propanamido)benzoic acid, reference compound]
AUC [1]: 7.27 ± 3.37 ng·h/mL
Cmax [1]: 7.02 ± 2.97 ng/mL

COc1cn([C@@H](CC2CCC2)C(=O)Nc2ccc(C(=O)O)cc2)c(=O)cc1-c1cc(Cl)ccc1C(C)=O [Example 171, (S)-4-(2-(4-(2-acetyl-5-chlorophenyl)-5-methoxy-2-oxopyridin-1(2H)-yl)-3-cyclobutylpropanamido)benzoic acid]
Vd/F [1]: 6.24 ± 2.15 L/kg
AUC [1]: 701 ± 175 ng·h/mL
CL/F [1]: 49.9 ± 12.5 mL/min/kg
half-life [1]: 1.45 ± 0.32 h
MRT [1]: 1.71 ± 0.32 h
Cmax [1]: 462 ± 116 ng/mL
IC50 [2]: 35 nM

COc1cn([C@@H](Cc2cccnc2)C(=O)Nc2ccc(C(=O)O)cc2)c(=O)cc1-c1cc(Cl)ccc1C(C)=O [Example 84, (S)-4-(2-(4-(2-acetyl-5-chlorophenyl)-5-methoxy-2-oxopyridin-1(2H)-yl)-3-(pyridin-3-yl)propanamido)benzoic acid]
AUC difference, Example 84 versus Comparative Example 1 [1]: 7.5 times
Cmax difference, Example 84 versus Comparative Example 1 [1]: 6.9 times
Vd/F [1]: 37.9 ± 8.23 L/kg
AUC [1]: 54.6 ± 19.1 ng·h/mL
CL/F [1]: 673 ± 235 mL/min/kg
half-life [1]: 0.68 ± 0.14 h
MRT [1]: 1.2 ± 0.2 h
Cmax [1]: 48.8 ± 8.8 ng/mL
IC50 [2]: 42 nM

COc1cn(C(Cc2c(Cl)cccc2Cl)C(=O)Nc2ccc(C(=O)O)cc2)c(=O)cc1-c1cc(Cl)ccc1C(C)=O (stereo not shown) [Example 76, 4-(2-(4-(2-acetyl-5-chlorophenyl)-5-methoxy-2-oxopyridin-1(2H)-yl)-3-(2,6-dichlorophenyl)propanamido)benzoic acid]
IC50 [2]: 100 nM

COc1cn([C@H](Cc2cccnc2)C(=O)Nc2ccc(C(=O)O)cc2)c(=O)cc1-c1cc(Cl)ccc1C(C)=O [Example 83, (R)-4-(2-(4-(2-acetyl-5-chlorophenyl)-5-methoxy-2-oxopyridin-1 (2H)-yl)-3-(pyridin-3-yl)propanamido)benzoic acid]
IC50 [2]: > 10000 nM

COc1cn(C(Cc2ccccc2)C(=O)Nc2ccc(C(=O)O)cc2F)c(=O)cc1-c1cc(Cl)ccc1C(C)=O (stereo not shown) [Example 29, 4-(2-(4-(2-acetyl-5-chlorophenyl)-5-methoxy-2-oxopyridin-1 (2H)-yl)-3-phenylpropanamido)-3-fluorobenzoic acid]
Vd/F [1]: 45.4 ± 16.5 L/kg
AUC [1]: 382 ± 98 ng·h/mL
CL/F [1]: 92.5 ± 28.3 mL/min/kg
half-life [1]: 6.06 ± 2.99 h
MRT [1]: 5 ± 2.57 h
Cmax [1]: 167 ± 45 ng/mL
IC50 [2]: 90 nM

COc1cn(C(CCOC2CCC2)C(=O)Nc2ccc(C(=O)O)cc2)c(=O)cc1-c1cc(Cl)ccc1C(C)=O (stereo not shown) [Example 162, 4-(2-(4-(2-acetyl-5-chlorophenyl)-5-methoxy-2-oxopyridin-1(2H)-yl)-4-cyclobutoxybutanamido)benzoic acid]
IC50 [2]: 35 nM

COc1cn(C(Cc2ccc(F)cc2)C(=O)Nc2ccc(C(=O)O)cc2)c(=O)cc1-c1cc(Cl)ccc1C(C)=O (stereo not shown) [Example 63, 4-(2-(4-(2-acetyl-5-chlorophenyl)-5-methoxy-2-oxopyridin-1(2H)-yl)-3-(4-fluorophenyl)propanamido)benzoic acid]
IC50 [2]: 55 nM

CCC(=O)c1ccc(Cl)cc1-c1cc(=O)n([C@@H](Cc2ccccc2)C(=O)Nc2ccc(C(N)=O)cc2)cc1OC [Example 26, (S)-4-(2-(4-(5-chloro-2-propionylphenyl)-5-methoxy-2-oxopyridin-1(2H)-yl)-3-phenylpropanamido)benzamide]
IC50 [2]: 21 nM

CCC(=O)c1ccc(Cl)cc1-c1cc(=O)n(C(CCOC(C)(C)C)C(=O)Nc2ccc3nccnc3c2)cc1OC (stereo not shown) [Example 113, 4-(tert-butoxy)-2-(4-(5-chloro-2-propionylphenyl)-5-methoxy-2-oxopyridin-(2H)-yl)-N-(quinoxalin-6-yl)butanamide]
IC50 [2]: 33 nM

COc1cn([C@@H](Cc2ccn(C)n2)C(=O)Nc2ccc(C(=O)O)cc2)c(=O)cc1-c1cc(Cl)ccc1C(C)=O [Example 101, (S)-4-(2-(4-(2-acetyl-5-chlorophenyl)-5-methoxy-2-oxopyridin-1(2H)-yl)-3-(1-methyl-1H-pyrazol-3-yl)propanamido)benzoic acid]
IC50 [2]: 23 nM

COc1cn([C@@H](CCOC(C)(C)C)C(=O)Nc2ccc(C(N)=O)cc2)c(=O)cc1-c1cc(Cl)ccc1C(C)=O [Example 122, (S)-4-(2-(4-(2-acetyl-5-chlorophenyl)-5-methoxy-2-oxopyridin-1(2H)-yl)-4-(tert-butoxy)butanamido)benzamide]
IC50 [2]: 100 nM

CCC(=O)c1ccc(Cl)cc1-c1cc(=O)n(C(Cc2ccccc2)C(=O)Nc2ccc(C(N)=O)cc2)cc1OC (stereo not shown) [Example 24, 4-(2-(4-(5-chloro-2-propionylphenyl)-5-methoxy-2-oxopyridin-1(2H)-yl)-3-phenylpropanamido)benzamide]
IC50 [2]: 36 nM

COc1cn(C(Cc2ccsc2)C(=O)Nc2ccc(C(=O)O)cc2)c(=O)cc1-c1cc(Cl)ccc1C(C)=O (stereo not shown) [Example 7, 4-(2-(4-(2-acetyl-5-chlorophenyl)-5-methoxy-2-oxopyridin-1 (2H)-yl)-3-(thiophen-3-yl)propanamido)benzoic acid]
IC50 [2]: 34 nM

COc1cn([C@@H](CC2CCC2)C(=O)Nc2ccc(C(=O)O)cc2)c(=O)cc1-c1c(C(C)=O)ccc(Cl)c1F [Example 161, (S)-4-(2-(4-(6-acetyl-3-chloro-2-fluorophenyl)-5-methoxy-2-oxopyridin-1(2H)-yl)-3-cyclobutylpropanamido)benzoic acid]
IC50 [2]: 13100 nM

COc1cn(C(CC2CC(C)(C)C2)C(=O)Nc2ccc(C(=O)O)cc2)c(=O)cc1-c1cc(Cl)ccc1C(C)=O (stereo not shown) [Example 173, 4-(2-(4-(2-acetyl-5-chlorophenyl)-5-methoxy-2-oxopyridin-1(2H)-yl)-3-(3,3-dimethylcyclobutyl)propanamido)benzoic acid]
IC50 [2]: 100 nM

CCC(=O)c1ccc(Cl)cc1-c1cc(=O)n(C(Cc2ccccc2)C(=O)Nc2ccc3ncncc3c2)cc1OC (stereo not shown) [Example 23, 2-(4-(5-chloro-2-propionylphenyl)-5-methoxy-2-oxopyridin-1(2H)-yl)-3-phenyl-N-(quinazolin-6-yl)propanamide]
IC50 [2]: 24 nM

CNC(=O)c1ccc(NC(=O)[C@H](CCOC(C)(C)C)n2cc(OC)c(-c3cc(Cl)ccc3C(C)=O)cc2=O)cc1 [Example 123, (S)-4-(2-(4-(2-acetyl-5-chlorophenyl)-5-methoxy-2-oxopyridin-1(2H)-yl)-4-(tert-butoxy)butanamido)-N-methylbenzamide]
IC50 [2]: 100 nM

COCCC(C(=O)Nc1ccc(C(=O)O)cc1)n1cc(OC)c(-c2c(C(C)=O)ccc(Cl)c2F)cc1=O (stereo not shown) [Example 146, 4-(2-(4-(6-acetyl-3-chloro-2-fluorophenyl)-5-methoxy-2-oxopyridin-1(21)-yl)-4-methoxvbutanamido)benzoic acid]
IC50 [2]: 37 nM

COc1cn(C(Cc2ccncc2)C(=O)Nc2ccc(C(=O)O)cc2)c(=O)cc1-c1cc(Cl)ccc1C(C)=O (stereo not shown) [Example 86, 4-(2-(4-(2-acetyl-5-chlorophenyl)-5-methoxy-2-oxopyridin-1(2H)-yl)-3-(pyridin-4-yl)propanamido)benzoic acid]
IC50 [2]: 99 nM

CCC(=O)c1ccc(Cl)cc1-c1cc(=O)n(C(Cc2ccccc2)C(=O)Nc2ccc3[nH]cnc3c2)cc1OC (stereo not shown) [Example 38, N-(1H-benzo[d]imidazol-5-yl)-2-(4-(5-chloro-2-propionylphenyl)-5-methoxy-2-oxopyridin-1(2H)-yl)-3-phenylpropanamide]
IC50 [2]: 30 nM

COc1cn(C(Cc2ccccc2)C(=O)Nc2ccc3[nH]cnc3c2)c(=O)cc1-c1cc(Cl)ccc1C(C)=O (stereo not shown) [Example 47, 2-(4-(2-acetyl-5-chlorophenyl)-5-methoxy-2-oxopyridin-1 (2H)-yl)-N-(1H-benzo[d]imidazol-5-yl)-3-phenylpropanamide]
IC50 [2]: 82 nM
